Assay results published in patent US7569578B2, “Heterocyclic anti-migraine agents” (Bristol-Meyers Squibb Company, priority 2003, dated 2009).

These molecules were tested against T1, Human CGRP1 Receptor (Homo sapiens, UniProt O60894+Q16602) (assay: CGRP Binding Assay ([125I]-CGRP radioligand displacement, SK-N-MC membrane homogenate)). Conditions: not given.
T1 construct: endogenous in cells; host or cells: SK-N-MC cells (membrane homogenate)
Procedure: Tissue Culture. SK-N-MC cells were grown at 37° C. in 5% CO2 as a monolayer in medium consisting of MEM with Earle's salts and L-glutamine (Gibco) supplemented with 10% fetal bovine serum (Gibco).
Cell Pellets. […] The cells were transferred from plates to polypropylene tubes (16×100 mm) and homogenized using a polytron. Homogenates were centrifuged at 32,000×g for 30 min. The pellets were resuspended in cold hypotonic lysis buffer with 0.1% mammalian protease inhibitor cocktail (Sigma) and assayed for protein concentration. The SK-N-MC homogenate was then aliquoted and stored at −80° C. until needed.
Radioligand Binding Assay. The compounds of invention were solubilized and carried through serial dilutions using 100% DMSO. Aliquots from the compound serial dilutions were further diluted 25 fold into assay buffer (50 mM Tris-Cl pH 7.5, 5 mM MgCl2, 0.005% Triton X-100) and transferred (volume 50 μl) into 96 well assay plates. […] SK-N-MC pellets were thawed, diluted in assay buffer with fresh 0.1% mammalian protease inhibitor cocktail (Sigma), and homogenized again. SK-N-MC homogenate (5 μg/well) was added in a volume of 100 μl. The assay plates were then incubated at room temperature for 2 h. Assays were stopped by addition of excess cold wash buffer (20 mM Tris-Cl pH 7.5, 0.1% BSA) immediately followed by filtration over glass fiber filters (Whatman GF/B) previously soaked in 0.5% PEI. Non-specific binding was defined with 1 μM beta-CGRP. Protein bound radioactivity was determined using a gamma or scintillation counter.

T1 sequence (Q16602 23-461): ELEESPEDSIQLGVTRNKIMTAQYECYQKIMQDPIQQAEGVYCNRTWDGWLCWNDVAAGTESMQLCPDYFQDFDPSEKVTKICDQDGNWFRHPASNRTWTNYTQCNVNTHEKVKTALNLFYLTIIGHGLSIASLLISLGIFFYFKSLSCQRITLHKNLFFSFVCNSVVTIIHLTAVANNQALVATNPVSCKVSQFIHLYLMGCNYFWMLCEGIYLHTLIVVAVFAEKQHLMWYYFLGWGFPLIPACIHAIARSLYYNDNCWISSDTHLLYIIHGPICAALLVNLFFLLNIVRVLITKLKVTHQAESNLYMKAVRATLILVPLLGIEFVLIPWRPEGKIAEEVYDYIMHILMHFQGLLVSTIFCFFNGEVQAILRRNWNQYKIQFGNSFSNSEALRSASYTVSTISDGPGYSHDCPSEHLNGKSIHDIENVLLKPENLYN
T1 sequence (O60894 27-148): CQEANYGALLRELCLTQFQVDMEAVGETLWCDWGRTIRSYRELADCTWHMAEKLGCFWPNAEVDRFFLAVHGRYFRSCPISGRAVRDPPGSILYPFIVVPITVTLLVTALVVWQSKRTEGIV

| Structure (SMILES) | IC50 |
| --- | --- |
| Cc1cc(CC(NC(=O)N2CCC(N3Cc4ccccc4NC3=O)CC2)c2nccn2Cc2ccccc2)cc2cn[nH]c12 (racemic) [Example 67, (±)-N-(1-(1-Benzyl-1H-imidazol-2-yl)-2-(7-methyl-1H-indazol-5-yl)ethyl)-4-(2-oxo-1,2-dihydroquinazolin-3(4H)-yl)piperidine-1-carboxamide] | < 10 nM |

Same assay, conditions: [125I]-CGRP displacement, SK-N-MC homogenate, room temperature 2 h; read-out: Human CGRP1 Receptor IC50

| Structure (SMILES) | IC50 |
| --- | --- |
| Cc1cc(CC(CC(=O)N2CCC(N3Cc4ccccc4NC3=O)CC2)c2ccc(C=O)cn2)cc2cn[nH]c12 (racemic) [Example 28, (±)-6-(1-(7-Methyl-1H-indazol-5-yl)-4-oxo-4-(4-(2-oxo-1,2-dihydroquinazolin-3(4H)-yl)piperidin-1-yl)butan-2-yl)nicotinaldehyde] | < 10 nM |
| Cc1cc(CC(CC(=O)N2CCC(N3Cc4ccccc4NC3=O)CC2)c2ccc(CN3CCCCC3)cn2)cc2cn[nH]c12 (racemic) [Example 29, (±)-3-(1-(4-(7-Methyl-1H-indazol-5-yl)-3-(5-(piperidin-1-ylmethyl)pyridin-2-yl)butanoyl)piperidin-4-yl)-3,4-dihydroquinazolin-2(1H)-one] | < 10 nM |
| Cc1cc(CC(NC(=O)N2CCC(N3Cc4ccccc4NC3=O)CC2)c2cccc(Br)n2)cc2cn[nH]c12 (racemic) [Example 30, (±)-N-(1-(6-Bromopyridin-2-yl)-2-(7-methyl-1H-indazol-5-yl)ethyl)-4-(2-oxo-1,2-dihydroquinazolin-3(4H)-yl)piperidine-1-carboxamide] | < 10 nM |
| Cc1cc(CC(NC(=O)N2CCC(N3Cc4ccccc4NC3=O)CC2)c2ccccn2)cc2cn[nH]c12 (racemic) [Example 31, (±)-N-(2-(7-Methyl-1H-indazol-5-yl)-1-(pyridin-2-yl)ethyl)-4-(2-oxo-1,2-dihydroquinazolin-3(4H)-yl)piperidine-1-carboxamide] | < 10 nM |
| Cc1cc(CC(NC(=O)N2CCC(N3Cc4ccccc4NC3=O)CC2)c2cc([N+](=O)[O-])ccn2)cc2cn[nH]c12 (racemic) [Example 32, (±)-N-(2-(7-Methyl-1H-indazol-5-yl)-1-(4-nitropyridin-2-yl)ethyl)-4-(2-oxo-1,2-dihydroquinazolin-3(4H)-yl)piperidine-1-carboxamide] | < 10 nM |
| Cc1cc(CC(NC(=O)N2CCC(N3Cc4ccccc4NC3=O)CC2)c2cc(F)ccn2)cc2cn[nH]c12 (racemic) [Example 33, (±)-N-(1-(4-Fluoropyridin-2-yl)-2-(7-methyl-1H-indazol-5-yl)ethyl)-4-(2-oxo-1,2-dihydroquinazolin-3(4H)-yl)piperidine-1-carboxamide] | < 10 nM |
| Cc1cc(CC(NC(=O)N2CCC(N3Cc4ccccc4NC3=O)CC2)c2ccc3ccccc3n2)cc2cn[nH]c12 (racemic) [Example 34, (±)-N-(2-(7-Methyl-1H-indazol-5-yl)-1-(quinolin-2-yl)ethyl)-4-(2-oxo-1,2-dihydroquinazolin-3(4H)-yl)piperidine-1-carboxamide] | < 10 nM |
| Cc1cc(CC(NC(=O)N2CCC(N3Cc4cccc(F)c4NC3=O)CC2)c2ccc3ccccc3n2)cc2cn[nH]c12 (racemic) [Example 35, (±)-4-(8-Fluoro-2-oxo-1,2-dihydroquinazolin-3(4H)-yl)-N-(2-(7-methyl-1H-indazol-5-yl)-1-(quinolin-2-yl)ethyl)piperidine-1-carboxamide] | < 10 nM |
| Cc1cc(CC(NC(=O)N2CCC(N3Cc4ccccc4NC3=O)CC2)c2cccc(-c3ccccc3)n2)cc2cn[nH]c12 (racemic) [Example 37, (±)-N-(2-(7-Methyl-1H-indazol-5-yl)-1-(6-phenylpyridin-2-yl)ethyl)-4-(2-oxo-1,2-dihydroquinazolin-3(4H)-yl)piperidine-1-carboxamide] | 10 to 100 nM |
| Cc1cccc(C(Cc2cc(C)c3[nH]ncc3c2)NC(=O)N2CCC(N3Cc4ccccc4NC3=O)CC2)n1 (racemic) [Example 38, (±)-N-(2-(7-Methyl-1H-indazol-5-yl)-1-(6-methylpyridin-2-yl)ethyl)-4-(2-oxo-1,2-dihydroquinazolin-3(4H)-yl)piperidine-1-carboxamide] | < 10 nM |
| Cc1cc(CC(OC(=O)N2CCC(N3Cc4cccc(F)c4NC3=O)CC2)c2cccc(Br)n2)cc2cn[nH]c12 (racemic) [Example 39, (±)-1-(6-Bromopyridin-2-yl)-2-(7-methyl-1H-indazol-5-yl)ethyl 4-(8-fluoro-2-oxo-1,2-dihydroquinazolin-3(4H)-yl)piperidine-1-carboxylate] | < 10 nM |
| Cc1cc(CC(OC(=O)N2CCC(N3Cc4ccccc4NC3=O)CC2)c2cccc(Br)n2)cc2cn[nH]c12 (racemic) [Example 40, (±)-1-(6-Bromopyridin-2-yl)-2-(7-methyl-1H-indazol-5-yl)ethyl 4-(2-oxo-1,2-dihydroquinazolin-3(4H)-yl)piperidine-1-carboxylate] | < 10 nM |
| Cc1cc(CC(OC(=O)N2CCC(N3Cc4ccccc4NC3=O)CC2)c2cccc(OC(C)(C)C)n2)cc2cn[nH]c12 (racemic) [Example 41, (±)-1-(6-tert-Butoxypyridin-2-yl)-2-(7-methyl-1H-indazol-5-yl)ethyl 4-(2-oxo-1,2-dihydroquinazolin-3(4H)-yl)piperidine-1-carboxylate] | 100 to 1000 nM |
| Cc1cc(CC(OC(=O)N2CCC(N3Cc4ccccc4NC3=O)CC2)c2cccc(=O)[nH]2)cc2cn[nH]c12 (racemic) [Example 42, (±)-2-(7-Methyl-1H-indazol-5-yl)-1-(6-oxo-1,6-dihydropyridin-2-yl)ethyl 4-(2-oxo-1,2-dihydroquinazolin-3(4H)-yl)piperidine-1-carboxylate] | 100 to 1000 nM |
| Cc1cc(CC(OC(=O)N2CCC(N3Cc4cccc(F)c4NC3=O)CC2)c2cccc(CC(C)C)n2)cc2cn[nH]c12 (racemic) [Example 43, (±)-1-(6-Isobutylpyridin-2-yl)-2-(7-methyl-1H-indazol-5-yl)ethyl 4-(8-fluoro-2-oxo-1,2-dihydroquinazolin-3(4H)-yl)piperidine-1-carboxylate] | 10 to 100 nM |
| Cc1cc(CC(OC(=O)N2CCC(N3Cc4cccc(F)c4NC3=O)CC2)c2cccc(Cc3cc(F)cc(F)c3)n2)cc2cn[nH]c12 (racemic) [Example 44, (±)-1-(6-(3,5-Difluorobenzyl)pyridin-2-yl)-2-(7-methyl-1H-indazol-5-yl)ethyl 4-(8-fluoro-2-oxo-1,2-dihydroquinazolin-3(4H)-yl)piperidine-1-carboxylate] | < 10 nM |

Now from value to molecule:

| IC50 | Structure (SMILES) |
| --- | --- |
| < 10 nM | Cc1cc(CC(OC(=O)N2CCC(N3Cc4cccc(F)c4NC3=O)CC2)c2cccc(C#N)n2)cc2cn[nH]c12 (racemic) [Example 45, (±)-1-(6-Cyanopyridin-2-yl)-2-(7-methyl-1H-indazol-5-yl)ethyl 4-(8-fluoro-2-oxo-1,2-dihydroquinazolin-3(4H)-yl)piperidine-1-carboxylate] |
| < 10 nM | Cc1cc(CC(OC(=O)N2CCC(N3Cc4ccccc4NC3=O)CC2)c2cc(CO)ccn2)cc2cn[nH]c12 (racemic) [Example 46, (±)-1-(4-(Hydroxymethyl)pyridin-2-yl)-2-(7-methyl-1H-indazol-5-yl)ethyl 4-(2-oxo-1,2-dihydroquinazolin-3(4H)-yl)piperidine-1-carboxylate] |
| < 10 nM | Cc1cc(CC(OC(=O)N2CCC(N3Cc4ccccc4NC3=O)CC2)c2cc(C=O)ccn2)cc2cn[nH]c12 (racemic) [Example 47, (±)-1-(4-Formylpyridin-2-yl)-2-(7-methyl-1H-indazol-5-yl)ethyl 4-(2-oxo-1,2-dihydroquinazolin-3(4H)-yl)piperidine-1-carboxylate] |
| 10 to 100 nM | Cc1cc(CC(OC(=O)N2CCC(N3Cc4ccccc4NC3=O)CC2)c2cc(C(=O)O)ccn2)cc2cn[nH]c12 (racemic) [Example 48, (±)-2-(2-(7-Methyl-H-indazol-5-yl)-1-(4-(2-oxo-1,2-dihydroquinazolin-3(4H)-yl)piperidine-1-carbonyloxy)ethyl)isonicotinic acid] |
| < 10 nM | Cc1cc(CC(OC(=O)N2CCC(N3Cc4ccccc4NC3=O)CC2)c2cc(C(=O)N3CCCCC3)ccn2)cc2cn[nH]c12 (racemic) [Example 49, (±)-2-(7-Methyl-1H-indazol-5-yl)-1-(4-(piperidine-1-carbonyl)pyridin-2-yl)ethyl 4-(2-oxo-1,2-dihydroquinazolin-3(4H)-yl)piperidine-1-carboxylate] |
| 10 to 100 nM | Cc1cc(CC(NC(=O)N2CCC(N3Cc4ccccc4NC3=O)CC2)c2ncc[nH]2)cc2cn[nH]c12 (racemic) [Example 65, (±)-N-(1-(1H-Imidazol-2-yl)-2-(7-methyl-1H-indazol-5-yl)ethyl)-4-(2-oxo-1,2-dihydroquinazolin-3(4H)-yl)piperidine-1-carboxamide] |
| < 10 nM | Cc1cc(CC(NC(=O)N2CCC(N3Cc4ccccc4NC3=O)CC2)c2nccn2C)cc2cn[nH]c12 (racemic) [Example 66, (±)-N-(1-(1-Methyl-1H-imidazol-2-yl)-2-(7-methyl-1H-indazol-5-yl)ethyl)-4-(2-oxo-1,2-dihydroquinazolin-3(4H)-yl)piperidine-1-carboxamide] |
